In the assay the test system is Oct4, Sox2, Nanog, Rex1, Lin28, Klf4, TERT mRNA in adult human fibroblasts. Briefly: RT-PCR and qRT-PCR of stem cell gene transcripts. Type of assay: cell-based. Here is the method: RNA was extracted using TRIzol® reagent (Invitrogen) according to the manufacturer's protocol and quantified by spectrophotometry. 2 μg of RNA was subjected to DNase I digestion, followed by a reverse transcription using a QuantiTech® Reverse transcription kit (Qiagen) with a mixture of oligo-dT and random hexamers primers. 50 ng/well of cDNA was used as template in qPCR reactions with oligonucleotides specific for the genes of interest (Table 1 of Supplementary Information). A non-template control (NTC) and an RNA sample without RT for each sample were used to control for potential contaminating DNA. All qPCR reactions were performed in triplicate with the resultant values being combined into an average threshold cycle (CT). The efficiency of qPCR was calculated from the slope of a relative standard curve using GAPDH primers. Relative quantification was determined using a 7500 Real Time PCR system (Applied Biosystems) measuring SYBR green fluorescence (PerfeCTa™ SYBR Green FastMix, Low ROX (Quanta Biosciences)). Fold differences are calculated using the ΔΔCT method with the formula 2^−ΔΔCt. (Liss, B., “Improved quantitative real-time RT-PCR for expression profiling of individual cells”, Nucleic Acids Research 30(17), e89, 2002). Expression profiles for the mRNA transcripts are shown as fold differences in comparison to mRNA levels in control (untreated) fibroblast cells.
Total RNA was isolated using Trizol (Invitrogen) following the manufacturer's protocol. Four μg of total RNA was used to perform first strand cDNA synthesis using Superscript (Invitrogen). For RT-PCR, 0.5 μl of the first strand cDNA was used as template. PCR was performed in Mg^2+ free PCR buffer (TaKara) supplemented with 1.5 mM MgCl2, 200 μM each of dNTPs, 25 pmoles each of forward and reverse primers and 0.5 U of TaKara ExTaq polymerase per reaction. PCR cycling was done as follows: Initial denaturation at 95° C. for 2 minutes followed by 35 cycles of denaturation at 95° C. for 15 seconds; annealing at primer-specific annealing temperature for 1 minute; and extension at 72° C. for 1:30 minutes. Final extension was done at 72° C. for 10 minutes and the samples held at 4° C. until use. Amplification products were resolved on 2% agarose gels containing 0.5 μg/ml ethidium bromide in 1×TAE buffer and photographed using a Kodak […] Image Station.

Setting [1] is: reduced oxygen culture plus FGF2.

Consider “FGF2: human recombinant FGF2 (Invitrogen, Chemicon or Protide), basic fibroblast growth factor”, for which the “transcription of Oct4, Nanog and Klf4 (RT-PCR)” value (5% oxygen, FGF2 supplemented, day 7) is listed as “increased”. Under “5% oxygen, day 7”, the “transcription of Sox2, Rex1 and Lin28 (RT-PCR)” value is given as “significant transcriptional dependence on FGF2”. Moreover, under setting [1], the “Lin28 mRNA levels (qRT-PCR)” value is on record as “further increased”; the “Rex1 and TERT mRNA (qRT-PCR)” value was “not further affected”.
